This is an account of results in PubChem BioAssay (NCI).

Where “and” joins values, the source holds several entries; their conditions need not be identical. Equal entries are not always repeated.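 Five compound concentrations were applied to cells in 96-well plates for 48 hours; endpoints were derived by simple linear interpolation of the resulting dose-response curve. Definition used: TGI = concentration required for complete inhibition of growth.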

Among the test systems are COLO 205 colon; HL-60(TB) leukemia; HOP-92 NSCLC; IGROV1 ovarian; MDA-N; NCI-H23 lung; NCI-H460 lung; OVCAR-3 ovarian; SF-268 CNS; SN12C renal.
Experiment in all cases: NCI-60 cell line screen, 48 h

For the compound `COC(=O)c1ccccc1/C=C1/Cc2ccccc2C1=O`, the TGI with COLO 205 colon was above 100 µM; in the assay with HL-60(TB) leukemia, above 100 µM; in the assay on HOP-92 NSCLC, above 100 µM; in the assay with IGROV1 ovarian it was 88.7 µM; in the assay on MDA-N, above 100 µM; in the assay on NCI-H23 lung, above 100 µM. In addition, the TGI is above 100 µM with NCI-H460 lung, above 100 µM in the assay on OVCAR-3 ovarian, above 100 µM in the assay with SF-268 CNS and 36.5 µM with SN12C renal.

As to `O=C1CCSSCCC(=O)NCCN1`, the TGI with COLO 205 colon, in the assay with HL-60(TB) leukemia, in the assay with HOP-92 NSCLC, with IGROV1 ovarian, in the assay with MDA-N and in the assay on NCI-H23 lung was above 100 µM each time. The TGI with NCI-H460 lung, with OVCAR-3 ovarian, with SF-268 CNS and in the assay with SN12C renal was above 100 µM throughout.

`CC(C)=C[C@@H]1C[C@H](n2cc(C)c(=O)[nH]c2=O)ON1CCO`: the TGI with COLO 205 colon, in the assay with HL-60(TB) leukemia, in the assay with HOP-92 NSCLC, with IGROV1 ovarian, with MDA-N and in the assay on NCI-H460 lung was above 100 µM throughout. The TGI with OVCAR-3 ovarian, in the assay with SF-268 CNS and in the assay on SN12C renal was above 100 µM throughout.

For the compound `CN(C)c1ccc(-c2c(C#N)c(S)n(NS(=O)(=O)c3ccccc3)c(=O)c2C#N)cc1`, the TGI in the assay with COLO 205 colon is above 100 µM; in the assay with HL-60(TB) leukemia, 85.2 µM; in the assay on HOP-92 NSCLC, above 100 µM; with IGROV1 ovarian, 73.5 µM; with MDA-N it was 86.5 µM; with NCI-H23 lung, above 100 µM. The TGI was above 100 µM in the assay on OVCAR-3 ovarian and 76.2 µM with SN12C renal.

Turning to `Cc1cc(-c2nc3c(O)cccc3s2)ccc1N`, the TGI with COLO 205 colon is above 100 µM; in the assay on HL-60(TB) leukemia it was 44.5 µM; in the assay on HOP-92 NSCLC, 58.9 µM; in the assay on IGROV1 ovarian, 53.8 µM; with MDA-N, 76.9 µM; in the assay on NCI-H23 lung, 89.4 µM. Moreover, the TGI with NCI-H460 lung was above 100 µM; in the assay with OVCAR-3 ovarian it was above 100 µM; with SF-268 CNS it was 75.6 µM; in the assay on SN12C renal, 90.7 µM.

Regarding `C=C1C(=O)OC2/C=C(\CO)C(OC(C)=O)CC(O)/C(C)=C/C(OC(=O)C(C)CC)C12` (configuration not stated), the TGI is 28.8 µM and 24.3 µM with COLO 205 colon; 39.6 µM and 30.9 µM in the assay on HL-60(TB) leukemia; 35 µM and 63.2 µM in the assay with HOP-92 NSCLC; above 100 µM in the assay with IGROV1 ovarian; 33.4 µM in the assay on MDA-N; 32.1 µM and 59.9 µM with NCI-H23 lung. The TGI with NCI-H460 lung is 63.6 µM and > 100 µM; in the assay with OVCAR-3 ovarian, 33.4 µM and 30.6 µM; with SF-268 CNS it was 73.3 µM and 49.9 µM; in the assay on SN12C renal it was 36 µM and 36.6 µM.

For the compound `COc1cc2c(cc1OC)C1c3ccccc3CCN1CC2` (configuration not stated), the TGI in the assay on COLO 205 colon is above 100 µM; in the assay with HL-60(TB) leukemia it was 80.3 µM; in the assay with HOP-92 NSCLC, above 100 µM; with IGROV1 ovarian, above 100 µM; in the assay with MDA-N, above 100 µM; in the assay on NCI-H23 lung it was above 100 µM. Besides, the TGI in the assay on NCI-H460 lung, in the assay on OVCAR-3 ovarian, with SF-268 CNS and in the assay with SN12C renal was above 100 µM in each case.

Take `CCOP(=O)(OCC)C1C(CO)OC(n2ccc(=O)[nH]c2=O)C1O` (configuration not stated): the TGI in the assay with HL-60(TB) leukemia, in the assay on HOP-92 NSCLC, in the assay with IGROV1 ovarian, in the assay on MDA-N, in the assay with NCI-H460 lung and in the assay on OVCAR-3 ovarian was above 100 µM throughout. The TGI with SF-268 CNS and in the assay on SN12C renal was above 100 µM in each case.

For `C=C(Cl)/C(=C\Cl)CCC(Br)C(C)C` (configuration not stated), the TGI in the assay with COLO 205 colon, with HL-60(TB) leukemia, in the assay with HOP-92 NSCLC, in the assay with IGROV1 ovarian, in the assay with MDA-N and in the assay on NCI-H23 lung was above 100 µM throughout. Further, the TGI in the assay on NCI-H460 lung, in the assay with OVCAR-3 ovarian, in the assay on SF-268 CNS and in the assay on SN12C renal was above 100 µM throughout.

Consider `O=C1CCC(=Nc2ccc(Cl)cc2)N1C(=O)COc1ccc(OCC(=O)N2C(=O)CSC2=Nc2ccc(Cl)cc2)cc1`, for which the TGI in the assay with COLO 205 colon, with HL-60(TB) leukemia, in the assay with HOP-92 NSCLC, in the assay with IGROV1 ovarian, in the assay with MDA-N and with NCI-H23 lung was above 100 µM each time. Also, the TGI with NCI-H460 lung, with OVCAR-3 ovarian, in the assay with SF-268 CNS and with SN12C renal was above 100 µM throughout.

In the case of `COc1ccc(/C(=N/O)c2ccccc2-c2nc3ccccc3c(=O)n2-c2ccc(S(=O)(=O)Nc3ncccn3)cc2)cc1C`, the TGI in the assay on COLO 205 colon is above 31.6 µM; in the assay with HL-60(TB) leukemia, 20 µM; in the assay with HOP-92 NSCLC, 30.4 µM; in the assay with IGROV1 ovarian, above 31.6 µM; with MDA-N it was above 31.6 µM; in the assay on NCI-H23 lung, 27.6 µM. Further, the TGI in the assay with NCI-H460 lung is above 31.6 µM; with OVCAR-3 ovarian, 25.9 µM; in the assay on SF-268 CNS, above 31.6 µM; with SN12C renal, above 31.6 µM.

In the case of `O=C(NC(Cc1c[nH]c2ccccc12)C(=O)O)/C(=C/c1ccccc1O)NC(=O)c1ccccc1` (configuration not stated), the TGI in the assay with COLO 205 colon is above 100 µM; with HL-60(TB) leukemia, above 100 µM; with HOP-92 NSCLC it was 75.5 µM; in the assay on IGROV1 ovarian, above 100 µM; in the assay with MDA-N, above 100 µM; in the assay with NCI-H23 lung it was above 100 µM. Moreover, the TGI in the assay on NCI-H460 lung is above 100 µM; with SF-268 CNS it was 45.6 µM; with SN12C renal, 63.9 µM.

As to `CC1(C)O[C@@H]2COC(=O)[C@@H]2O1`, the TGI in the assay with COLO 205 colon, with HL-60(TB) leukemia, with HOP-92 NSCLC, in the assay with IGROV1 ovarian, in the assay on MDA-N and with NCI-H23 lung was above 100 µM throughout. Moreover, the TGI in the assay on NCI-H460 lung, in the assay on OVCAR-3 ovarian, with SF-268 CNS and in the assay with SN12C renal was above 100 µM throughout.

As to `c1ccc2c(c1)[nH]c1nc3cc(-c4ccc5nc6c(nc5c4)[nH]c4ccccc46)ccc3nc12`, the TGI was above 100 µM in the assay with HL-60(TB) leukemia; above 21.5 µM in the assay with HOP-92 NSCLC; above 100 µM in the assay on IGROV1 ovarian; above 100 µM in the assay with MDA-N; above 100 µM in the assay with NCI-H23 lung; above 100 µM with NCI-H460 lung. The TGI with SF-268 CNS and with SN12C renal was above 100 µM in each case.
